Assay results: US20090012152A1, “Use of Tetramic Acid Derivatives for Controlling Insects from the Genus of the Plane Lice (Sternorrhyncha)” (Bayer CropScience Aktiengesellschaft, priority 2005, published 2009)

What was measured:
Assay type in all cases: in vivo
[1] = test system: Macrosiphum euphorbiae; experiment: Example 43: aubergines treated against Macrosiphum euphorbiae; conditions: nymphs on leaves, % a.i.: imidacloprid 0.014, I-9, I-2, I-11 0.0144; for Kill (%) 7 d: 7 d after second treatment; for Kill (%) 14 d: 14 d after second treatment
Protocol: In three replications, plots of a size of 10 m^2 with aubergines of the cultivar “F 100” are treated against Macrosiphum euphorbiae. The application is carried out using a knapsack sprayer operated with pressurized air. Here, the active compounds Example (I-9) (60 SC), Example (I-2) (60 SC) and Example (I-11) (60 SC) and the commercial standard imidacloprid (70 WG) are tested at the stated application rates. Three applications are carried out, at an interval of 7 or 8 days. The application rate is 1000 l of water/ha.
Evaluation is carried out 7 and 14 days after the second treatment by rating the kill of the nymphs on the leaves.

[2] = test system: Bemisia argentifolii; experiment: Example 35: aubergines (F 100) treated against Bemisia argentifolii; conditions: 7 d after last of three treatments, nymphs on leaves, % a.i.: imidacloprid 0.014, I-9, I-2, I-11 0.0144
Protocol: In three replications, plots of a size of 10 m^2 with aubergines of the cultivar “F 100” are treated against Bemisia argentifolii. The application is carried out using a knapsack sprayer operated with pressurized air. Here, the active compounds Example (I-9) (60 SC), Example (I-2) (60 SC) and Example (I-11) (60 SC) and the commercial standard imidacloprid (70 WG) are tested at the stated application rates. Three applications are carried out, at an interval or 7 or 8 days. The application rate is 1000 l of water/ha.
Evaluation is carried out 7 days after the last treatment by rating the kill of the nymphs on the leaves.

[3] = test system: Aphis fabae; experiment: Example 51: broad beans treated against Aphis fabae; conditions: nymphs on leaves, g a.i./ha: Pirimor 250, I-9 36, I-2 36, I-4 42; for Kill (%) 7 d: 7 d after treatment; for Kill (%) 15 d: 15 d after treatment
Protocol: In three replications, plots of a size of 10 m^2 with broad beans of the cultivar “Fruhe Weisskeimige” are treated against Aphis fabae. The application is carried out using a knapsack sprayer operated with pressurized air. Here, the active compounds Example (I-9) (240 SC), Example (I-2) (240 SC) and Example (I-4) (240 SC), in a tank mix with 0.2% of rapeseed oil methyl ester (500 EW), and the commercial standard Pirimor (50 WG) are tested at the stated application rates. Application is carried out once. The application rate is 500 l of water/ha.
Evaluation is carried out 7 and 15 days after the treatment by rating the kill of the nymphs on the leaves.

[4] = test system: Paratrioza cockerelli; experiment: Example 7: bell peppers treated against Paratrioza cockerelli; conditions: nymphs on leaves, g a.i./ha: imidacloprid 52.6, I-4 72, dimethoate 561; for Kill (%) 7 d: 7 d after treatment; for Kill (%) 15 d: 15 d after treatment
Protocol: In four replications, plots of a size of about 7 m^2 with bell peppers of the cultivar “Jupiter” are treated against Paratrioza cockerelli. The application is carried out with a knapsack sprayer operated with pressurized air. Here, the active compound Example (I-4) (240 SC) is applied in a tank mix with 0.2% a.i. of rapeseed oil methyl ester (500 EW) and the commercial standards imidacloprid 192 SC and dimethoate (480 EC) are applied in a tank mix with 0.125% Induce at the stated application rates. The application is carried out with an application rate of 467 l of water/ha.
Evaluation is carried out 7 and 15 days after the treatment by rating the kill of the animals (nymphs) on the leaves.

[5] = test system: Pseudococcus spp.; experiment: Example 28: vines treated against Pseudococcus spp.; conditions: 28 days after last of two treatments, on grapes, imidacloprid drip irrigation 560 g/ha, I-4 0.0168%, I-9 0.0144% spray
Protocol: In four replications, three in each case about 12-year-old vines of the cultivar “Auvemat” are treated against Pseudococcus spp. The commercial standard used is an application with imidacloprid at the recommended application rate, by drip irrigation. The active compounds are applied by spraying using a knapsack sprayer operated with pressurized air. Here, the active compounds Example (I-4) (240 SC) and Example (I-9) (240 SC) are applied in a tank mix with 0.1% a.i. of rapeseed oil methyl ester (500 EW), at the stated amount. Two applications are carried out at an interval of 15 days. The application rate is 1776 l of water/ha. Evaluation is carried out 28 days after the last treatment by rating the kill on grapes in percent.

[6] = test system: Aleurodes citri; experiment: Example 31: orange tree treated against Aleurodes citri; conditions: on leaves, g a.i./ha/m crown height: imidacloprid 75, I-4 72; for Kill (%) 7 d: 7 d after treatment; for Kill (%) 14 d: 14 d after treatment; for Kill (%) 21 d: 21 d after treatment
Protocol: In four replications, in each case one orange tree of the cultivar “Newhall” is treated against Aleurodes citri. Here, the active compound Example (I-4) (240 SC) is, at the stated application rate, tested against the commercial standard imidacloprid. The active compounds are applied in a tank mix with 0.5% a.i. of Oliocin (700 EW), at an application rate of 1500 l of water/ha. The application is carried out using a motor-operated knapsack sprayer.
Evaluation is carried out 7, 14 and 21 days after the treatment by rating the kill of the animals on the leaves.

[7] = test system: Trialeurodes vaporariorum; experiment: Example 34: tomatoes treated against Trialeurodes vaporariorum; conditions: larvae on leaves, % a.i.: imidacloprid 0.015, I-9 0.0144, I-4 0.0144
Protocol: In three replications, plots of a size of 5 m^2 with tomatoes of the cultivar “Rio Grande” are treated against Trialeurodes vaporariorum. The application is carried out using a motor-operated knapsack apparatus. Here, the active compounds Example (I-9) (240 SC) and Example (I-4) (240 SC) and the commercial standard imidacloprid (200 SL) are tested at the stated application rates. The application rate is 1000 l of water/ha. Three applications are carried out, at an interval of 11 or 10 days.
Evaluation is in each case carried out 7 or 10 days after each treatment, by rating the kill of the larvae on the leaves.

[8] = test system: Toxoptera citricida; experiment: Example 45: orange tree treated against Toxoptera citricida; conditions: on leaves, % a.i.: imidacloprid 0.0125, I-9 0.0144, I-4 0.0144; for Kill (%) 6 d: 6 d after treatment; for Kill (%) 20 d: 20 d after treatment
Protocol: In three replications, in each case one about 8-year-old orange tree of the cultivar “Navel” is treated against Toxoptera citricida. Here, the active compounds Example (I-9) (240 SC) and Example (I-4) (240 SC), in a tank mix with 0.1% a.i. of Marlipal, are tested against the commercial standard imidacloprid (350 SC), at the stated application rates. The application is carried out using a motor-operated knapsack sprayer, the application rate being 6.7 l of water/plant.
Evaluation is carried out 6 and 20 days after the treatment by rating the kill of the animals on the leaves.

CCOC(=O)OC1=C(c2cc(C)ccc2Br)C(=O)NC12CCC(OC)CC2 (centres unmarked) [Example (I-2)]
Kill (%) 7 d [1]: 99%
Kill (%) 14 d [1]: 91%
Kill (%) 7 d [2]: 100%
Kill (%) 7 d [3]: 98.6%
Kill (%) 15 d [3]: 100%

CCOC(=O)OC1=C(c2cc(C)ccc2C)C(=O)NC12CCC(OC)CC2 (centres unmarked) [Example (I-4)]
Kill (%) 7 d [4]: 90%
Kill (%) 15 d [4]: 100%
Kill (%) [5]: 99%
Kill (%) 7 d [6]: 90.9%
Kill (%) 14 d [6]: 99.5%
Kill (%) 21 d [6]: 99.9%
Kill (%) 7 d after the 2nd treatment [7]: 100%
Kill (%) 10 d after the 1st treatment [7]: 81.9%
Kill (%) 10 d after the 3rd treatment [7]: 94.3%
Kill (%) 7 d [3]: 100%
Kill (%) 15 d [3]: 100%
Kill (%) 6 d [8]: 97%
Kill (%) 20 d [8]: 97%

O=[N+]([O-])NC1=NCCN1Cc1ccc(Cl)nc1 [imidacloprid, reference compound]
Kill (%) 7 d [4]: 90%
Kill (%) 15 d [4]: 0%
Kill (%) 7 d [1]: 100%
Kill (%) 14 d [1]: 100%
Kill (%) [5]: 100%
Kill (%) 7 d [6]: 98.4%
Kill (%) 14 d [6]: 99.6%
Kill (%) 21 d [6]: 99.4%
Kill (%) 7 d [2]: 100%
Kill (%) 7 d after the 2nd treatment [7]: 88.4%
Kill (%) 10 d after the 1st treatment [7]: 53.5%
Kill (%) 10 d after the 3rd treatment [7]: 67.5%
Kill (%) 6 d [8]: 99%
Kill (%) 20 d [8]: 94%
